Values quoted from earlier work as cited in US9662344B2, “Carnitine retention” (The University of Nottingham, priority 2003, dated 2017).
Where two headings read alike, the source gives them in different places.

Legend:
[1] = tested on: skeletal muscle carnitine uptake; conditions: isolated cells (Georges et al., 2000)
[2] = not given; remark: listed apart in the source
[3] = oral doses of L-carnitine between 2 and 6 g

plasma carnitine concentration of maximum renal reabsorption (above this the excess is excreted in urine): 60 to 100 µmol/L
bioavailability [3]: less than 20%
time of peak plasma concentrations after ingestion [3]: ~3 h
Km [1]: 6.4 µM
resting skeletal muscle carnitine content ([2]; 6 g every day for up to 2 weeks (Vukovich et al 1994)): no significant increase
SMILES: C[N+](C)(C)C[C@H](O)CC(=O)[O-] [L-carnitine]
VO2 max ([2]; competitive walkers, oral 4 g every day for 2 weeks (Marconi et al 1985)): slight but significant increase
effect on VO2 max, RQ, maximal exercise, fatty acid utilisation, glucose utilisation, lactate, perceived exertion, or heart rate ([2]; oral 3-5 g L-carnitine over 5-28 days): no effect
VO2 max ([2]; single dose 2 g orally an hour before exercise (Vecchiet et al 1990)): increase
